SMILES strings stand for the structures.

This assay deals with T1, human ferroportin (Homo sapiens, UniProt Q9NP59).
T1 construct: expressed in transfected cells
T1 sequence (Q9NP59 1-571): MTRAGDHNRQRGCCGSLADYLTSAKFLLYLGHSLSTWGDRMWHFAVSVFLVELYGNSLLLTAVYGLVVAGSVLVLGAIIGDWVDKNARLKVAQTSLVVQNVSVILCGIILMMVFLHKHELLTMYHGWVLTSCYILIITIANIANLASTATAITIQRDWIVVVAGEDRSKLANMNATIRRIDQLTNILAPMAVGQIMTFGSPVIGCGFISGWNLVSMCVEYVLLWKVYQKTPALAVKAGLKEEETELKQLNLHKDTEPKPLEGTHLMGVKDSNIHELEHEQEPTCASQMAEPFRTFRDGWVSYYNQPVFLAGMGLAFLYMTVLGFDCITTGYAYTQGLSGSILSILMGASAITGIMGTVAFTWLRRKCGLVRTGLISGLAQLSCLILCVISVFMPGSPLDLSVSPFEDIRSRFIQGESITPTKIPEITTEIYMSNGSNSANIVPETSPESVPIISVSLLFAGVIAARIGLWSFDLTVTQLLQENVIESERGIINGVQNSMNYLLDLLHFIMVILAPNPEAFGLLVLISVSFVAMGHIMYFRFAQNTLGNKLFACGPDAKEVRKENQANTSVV
In words: ferroportin internalization assay (inhibition of hepcidin-induced internalization of Fpn). The format is cell-based. The following applies: MDCK-FPN-HaloTag cells, 100 nM hepcidin, overnight incubation; concentration range from 0.04 to 40 μM. As to the method: The hepcidin-antagonistic action of the sulfonaminoquinoline compounds of the present invention was determined by means of the “ferroportin internalization assay” described in the following.
Organic compounds of low molecular weight which counteract the biological actions of hepcidin on its receptor, the iron exporter ferroportin (Fpn), were identified on the basis of their ability to inhibit hepcidin-induced internalization of Fpn in living cells. For this purpose, a stable cell line (Madin-Darby canine kidney, MDCK) was produced which constitutively expresses human ferroportin fused recombinantly at its C terminus with a fluorescent reporter protein (HaloTag®, Promega Corp.). The internalization of Fpn was monitored by labelling these cells with fluorescent ligands (HaloTag®-TMR, tetramethylrhodamine) which join covalently on to the HaloTag reporter gene fused with the Fpn. […] Optimized image analysis algorithms were used to ascertain the cell surface and to quantify the corresponding membrane fluorescence associated with the Fpn-HaloTag fusion protein. This assay allows a quantitative image-based analysis in order to quickly evaluate compounds which can block hepcidin-induced internalization of Fpn. This assay is a direct in vitro pendant of the in vivo action mechanism proposed for medicament candidates and is therefore suitable as an initial assay with a high throughput for identifying compounds which counteract the action of hepcidin on its receptor ferroportin.
• 7,500 cells per well (MDCK-FPN-HaloTag) were transinoculated in 50 μl of DMEM medium (Dulbeccos Modified Eagle Medium with 10% foetal bovine serum (FBS), which contained 1% penicillin, 1% streptomycin and 450 μg/ml of G-418) in microtitre plates with 384 wells (384 Cell carrier plates, Perkin Elmer, cat. no. 6007430), followed by incubation overnight at 37° C./5% CO2. • The volume of the medium was reduced to 10 μl, and 10 μl of 5 μM HaloTag-TMR ligands (Promega, cat. no. G 8251) were added in DMEM medium in order to stain the Fpn-HaloTag fusion protein. • 15 min incubation at 37° C./5% CO2 • The HaloTag-TMR ligand was removed and the cells were washed with fresh DMEM medium and the volume was reduced to 20 μl of DMEM medium. • 3 μl per well of a solution of the test compound (dissolved DMSO) were added ([…]). • 7 μl of […] hepcidin (Peptides International, cat. no. PLP-4392-s, 100 μM stock solution diluted in water in DMEM medium) were added per well up to a final hepcidin concentration of 100 nM. • The cells were incubated overnight at 37° C./5% CO2. • The cells were fixed by adding paraformaldehyde (PFA, Electron Microscopy Sciences, cat. no. 15710-S) directly to the cells up to a final concentration of 4%, followed by incubation at room temperature for 15-20 minutes. • The PFA solution was removed and the cells were washed with PBS (phosphate-buffered saline solution), in each case 30 μl remaining in the plate. • 20 μl of Draq5 (Biostatus, cat. no. DR 51000) were added up to a final concentration of 2.5 μM in order to stain the cell nuclei, and the plates were sealed with a foil plate seal. • The plates were analysed with the Opera Plate Imager (Opera Confocal Plate Imager, Perkin Elmer) with 7 images per well; 440 ms exposure time per image, […] focal point height.
As a reminder, the IC50 is the point on the concentration scale where inhibition reaches its midpoint. A high value points to weaker potency. On to `COc1cc(NS(=O)(=O)c2ccc(Cl)cc2F)c2ncccc2c1` [Example 57, 4-Chloro-2-fluoro-N-(6-methoxy-quinolin-8-yl)-benzenesulfonamide], for which the IC50 turned out to be 1.75 µM.

For the molecule `COc1cc(NS(=O)(=O)c2cccnc2)c2ncccc2c1` [Example 59, Pyridine-3-sulfonic acid (6-methoxy-quinolin-8-yl)-amide], the IC50 was determined as 2.8 µM.

Molecule `O=S(=O)(Nc1ccc(Cl)c2cccnc12)c1cccnc1` [Example 60, Pyridine-3-sulfonic acid (5-chloro-quinolin-8-yl)-amide] had an IC50 of 1.78 µM.

Take `CC(C)C(=O)Nc1cc(C(F)(F)F)ccc1S(=O)(=O)Nc1cccc2cccnc12` [Example 61, N-[2-(Quinolin-8-ylsulfamoyl)-5-trifluoromethyl-phenyl]-isobutyramide]: 10 µM corresponded to half-maximal inhibition (IC50).

`O=S(=O)(Nc1cccc2cccnc12)c1cccc(Cl)c1F` [Example 62, 3-Chloro-2-fluoro-N-quinolin-8-yl-benzenesulfonamide] yielded an IC50 of 1.71 µM.

`O=S(=O)(Nc1cccc2cccnc12)c1c(F)cccc1F` [Example 64, 2,6-Difluoro-N-quinolin-8-yl-benzenesulfonamide] had an IC50 of 1.14 µM.

As to `COc1cc(NS(=O)(=O)c2ccc(C(F)(F)F)cc2N)c2ncccc2c1` [Example 65, 2-Amino-N-(6-methoxy-quinolin-8-yl)-4-trifluoromethyl-benzenesulfonamide], 1 µM corresponded to half-maximal inhibition (IC50).

Turning to `O=S(=O)(Nc1cccc2cccnc12)c1cccc(Cl)c1Cl` [Example 67, 2,3-Dichloro-N-quinolin-8-yl-benzenesulfonamide], 7.09 µM corresponded to half-maximal inhibition (IC50).

In turn, `Cc1c(Cl)cccc1S(=O)(=O)Nc1cccc2cccnc12` [Example 68, 3-Chloro-2-methyl-N-quinolin-8-yl-benzenesulfonamide] came in with an IC50 of 4 µM.

In turn, `O=S(=O)(Nc1cccc2cccnc12)Oc1ccccc1` [Example 70, Quinolin-8-yl-sulfamic acid phenyl ester] returned a half-inhibitory concentration (IC50) of 3.25 µM.

Molecule `Cc1cnc2c(NS(=O)(=O)c3ccc(Cl)cc3F)cccc2c1` [Example 71, 4-Chloro-2-fluoro-N-(3-methyl-quinolin-8-yl)-benzenesulfonamide] registered an IC50 of 1.3 µM.

`Cc1cnc2c(NS(=O)(=O)c3cccnc3)cccc2c1` [Example 72, Pyridine-3-sulfonic acid (3-methyl-quinolin-8-yl)-amide] registered an IC50 of 1.39 µM.

`Cc1cnc2c(NS(=O)(=O)c3ccc(C(F)(F)F)cc3N)cccc2c1` [Example 73, 2-Amino-N-(3-methyl-quinolin-8-yl)-4-trifluoromethyl-benzenesulfonamide] showed an IC50 of 3 µM.

Turning to `O=S1(=O)Nc2c(ccc3cccnc23)-c2cc(F)ccc21` [Example 74, 9-Fluoro-5H-6-thia-4,5-diaza-chrysene 6,6-dioxide], the IC50 stood at 1.56 µM.

As for `O=S(=O)(Nc1cc(F)cc2cccnc12)c1ccccc1` [Example 75, N-(6-Fluoro-quinolin-8-yl)-benzenesulfonamide], the IC50 is 0.78 µM.

`Cc1cc(NS(=O)(=O)c2ccccc2)c2ncccc2c1` [Example 77, N-(6-Methyl-quinolin-8-yl)-benzenesulfonamide] returned an IC50 of 2.18 µM.

`O=S1(=O)Nc2c(ccc3cccnc23)-c2cc(C(F)(F)F)ccc21` [Example 78, 9-Trifluoromethyl-5H-6-thia-4,5-diaza-chrysene 6,6-dioxide] yielded a concentration for half-maximal inhibition (IC50) of 0.13 µM.

Take `Cc1ccc(S(=O)(=O)Nc2ccc(Cl)c3cccnc23)c(N)c1` [Example 79, 2-Amino-N-(5-chloro-quinolin-8-yl)-4-methyl-benzenesulfonamide]: the IC50 was found to be 1.22 µM.

As to `COc1cc(NS(=O)(=O)c2ccc(C)cc2N)c2ncccc2c1` [Example 80, 2-Amino-N-(6-methoxy-quinolin-8-yl)-4-methyl-benzenesulfonamide], the IC50 is 0.585 µM.

The molecule `O=S(=O)(Nc1cc(F)c(Cl)c2cccnc12)c1ccccc1` [Example 82, N-(5-Chloro-6-fluoro-quinolin-8-yl)-benzenesulfonamide] showed an IC50 of 1.5 µM.

Molecule `Cc1c(F)cccc1S(=O)(=O)Nc1cccc2cccnc12` [Example 83, 3-Fluoro-2-methyl-N-quinolin-8-yl-benzenesulfonamide] yielded an IC50 of 1.5 µM.

`O=S(=O)(Nc1cccc2cccnc12)c1ccccn1` [Example 85, Pyridine-2-sulfonic acid quinolin-8-ylamide] showed an IC50 of 1.89 µM.

For the molecule `O=S(=O)(Nc1cccc2cccnc12)c1cnc2ccccc2c1` [Example 88, Quinoline-3-sulfonic acid quinolin-8-ylamide], half-maximal inhibition (IC50) was put at 2.06 µM.

The molecule `O=S(=O)(Nc1cccc2cccnc12)c1ccc(C(F)(F)F)nc1` [Example 89, 6-Trifluoromethyl-pyridine-3-sulfonic acid quinolin-8-ylamide] came in with an IC50 of 3.69 µM.

In turn, `Cc1ccc(NS(=O)(=O)c2ccccc2)c2ncccc12` [Example 90, N-(5-Methyl-quinolin-8-yl)-benzenesulfonamide] showed an IC50 of 1.1 µM.

With `O=S(=O)(Nc1ccc(C(F)(F)F)c2cccnc12)c1ccccc1` [Example 91, N-(5-Trifluoromethyl-quinolin-8-yl)-benzenesulfonamide], the IC50 amounted to 1.05 µM.

Molecule `O=S(=O)(Nc1cc(OC(F)(F)F)cc2cccnc12)c1ccccc1` [Example 92, N-(6-Trifluoromethoxy-quinolin-8-yl)-benzenesulfonamide] gave an IC50 of 9 µM.

Take `O=S(=O)(Nc1cc(F)cc2cccnc12)c1c(F)cccc1F` [Example 94, 2,6-Difluoro-N-(6-fluoro-quinolin-8-yl)-benzenesulfonamide]: the concentration for half-maximal inhibition (IC50) amounted to 1 µM.

Take `O=S(=O)(Nc1cc(F)cc2cccnc12)c1ccc(Cl)cc1F` [Example 95, 4-Chloro-2-fluoro-N-(6-fluoro-quinolin-8-yl)-benzenesulfonamide]: the IC50 worked out at 0.69 µM.

The molecule `O=S(=O)(Nc1cc(F)cc2cccnc12)c1cccnc1` [Example 96, Pyridine-3-sulfonic acid (6-fluoro-quinolin-8-yl)-amide] came in with an IC50 of 5.87 µM.

As for `O=S(=O)(Nc1cc(F)c(F)c2cccnc12)c1ccccc1` [Example 97, N-(5,6-Difluoro-quinolin-8-yl)-benzenesulfonamide], the IC50 amounted to 8 µM.

`O=S(=O)(Nc1ccc(F)c2cccnc12)c1ccccc1` [Example 98, N-(5-Fluoro-quinolin-8-yl)-benzenesulfonamide] returned a concentration for half-maximal inhibition (IC50) of 0.988 µM.

`Cc1cc2c(cc1C)S(=O)(=O)Nc1c-2ccc2cccnc12` [Example 104, 8,9-Dimethyl-5H-6-thia-4,5-diaza-chrysene 6,6-dioxide] registered an IC50 of 4.02 µM.

In turn, `COc1ccc2c(c1)-c1ccc3cccnc3c1NS2(=O)=O` [Example 105, 9-Methoxy-5H-6-thia-4,5-diaza-chrysene 6,6-dioxide] came in with an IC50 of 1.58 µM.

On to `Cc1cc2c(c3ncccc13)NS(=O)(=O)c1ccccc1-2` [Example 107, 12-Methyl-5H-6-thia-4,5-diaza-chrysene 6,6-dioxide], for which the IC50 is 0.599 µM.

The molecule `COc1cc2c(c3ncccc13)NS(=O)(=O)c1ccccc1-2` [Example 108, 12-Methoxy-5H-6-thia-4,5-diaza-chrysene 6,6-dioxide] gave a half-maximal inhibitory concentration (IC50) of 0.99 µM.

The values are drawn from patent publication US9102688B2, “Sulfonaminoquinoline hepcidin antagonists” (Vifor (International) AG, priority 2011, dated 2015).
